Paper PMC6199744, “Development of Chemical Proteomics for the Folateome and Analysis of the Kinetoplastid Folateome” (ACS Infectious Diseases, 2018)

Tested on: L. major lysate proteins
Assay: Multitargeted bead mixture chemoproteomics, single concentration competition, proteome-wide
Type: binding

## Nc1nc2c(c(=O)[nH]1)N(C=O)C(CNc1ccc(C(=O)N[C@@H](CCC(=O)O)C(=O)O)cc1)CN2 (stereo partly drawn) [LEU, leucovorin]
Protein LMJF.35.1220, SHORT CHAIN DEHYDROGENASE, PUTATIVE
  fold change relative to vehicle control: 1.29
Protein LMJF.35.1380, MITOCHONDRIAL PROCESSING PEPTIDASE, BETA SUBUNIT, PUTATIVE
  fold change relative to vehicle control: 0.96
Protein LMJF.35.1830 HY[…], CONSERVED
  fold change vs vehicle control: 1.03
Protein LMJF.35.3340 6-phosphogluconate dehydrogenase
  fold change vs vehicle control: 1.03
Protein LMJF.35.3700 GIM5A PROTEIN, PUTATIVE,GLYCOSOMAL MEMBRANE PROTEIN, vehicle control = 1
  fold change: 0.87
Protein LMJF.35.3760 60S RIBOSOMAL PROTEIN L27A/L29, PUTATIVE
  fold change vs vehicle control: 1.05
Protein LMJF.35.3840, […] 2 SUBUNIT, PUTATIVE
  fold change relative to vehicle control: 1.16
Protein LMJF.35.3860 T-COMPLEX PROTEIN 1, ETA SUBUNIT, PUTATIVE
  fold change vs vehicle control: 0.98
Protein LMJF.35.4420 MITOCHONDRIAL PHOSPHATE TRANSPORTER, PUTATIVE, vehicle control = 1
  fold change: 1
Protein LMJF.35.4880, HYPOTHETICAL PROTEIN, CONSERVED (TPR repeat, putative)
  fold change relative to vehicle control: 1.3
Protein LMJF.35.5330, ISOPENTENYL-D[…]-ISOMERASE, PUTATIVE
  fold change relative to vehicle control: 1.06
Protein LMJF.36.0070, STRESS-INDUCIBLE PROTEIN STI1 HOMOLOG
  fold change relative to vehicle control: 1.81
Protein LMJF.36.0480 HYPOTHETICAL PROTEIN, CONSERVED, vehicle control = 1
  fold change: 1
Protein LMJF.36.0620 HYPOTHETICAL PROTEIN, CONSERVED
  fold change vs vehicle control: 0.9
Protein LMJF.36.0930 40S RIBOSOMAL PROTEIN S18, PUTATIVE
  fold change vs vehicle control: 1.19
Protein LMJF.36.0990 40S RIBOSOMAL PROTEIN S10, PUTATIVE
  fold change vs vehicle control: 0.91
Protein LMJF.36.1140 SHORT CHAIN 3-HYDROXYACYL-COA DEHYDROGENASE, PUTATIVE, vehicle control = 1
  fold change: 0.94
Protein LMJF.36.1260, FRUCTOSE-1,6-BI[…]
  fold change relative to vehicle control: 1.16
Protein LMJF.36.1340 N-ACETYLTRANSFERASE SUBUNIT NAT1, PUTATIVE, vehicle control = 1
  fold change: 0.92
Protein LMJF.36.1650 PROTEASOME BETA 5 SUBUNIT, PUTATIVE
  fold change vs vehicle control: 0.98
Protein LMJF.36.2380, STEROL 24-C-METHYLTRANSFERASE, PUTATIVE
  fold change relative to vehicle control: 1.04
Protein LMJF.36.2950 SUCCINYL-COA LIGASE GDP-FORMING] BETA-CHAIN, PUTATIVE
  fold change vs vehicle control: 0.96
Protein LMJF.36.3210 14-3-3 PROTEIN-LIKE PROTEIN
  fold change vs vehicle control: 1.08
Protein LMJF.36.3410 SHORT CHAIN DEHYDROGENASE-LIKE PROTEIN
  fold change vs vehicle control: 0.97
Protein LMJF.36.3460 HYPOTHETICAL PROTEIN, CONSERVED (NIPSNAP, putative), vehicle control = 1
  fold change: 0.75
Protein LMJF.36.3580 HYPOTHETICAL PROTEIN, CONSERVED (Protein of unknown function (DUF2009), putative), vehicle control = 1
  fold change: 0.85
Protein LMJF.36.3750 40S RIBOSOMAL PROTEIN S27-1, PUTATIVE, vehicle control = 1
  fold change: 0.85
Protein LMJF.36.3910 S-ADENOSYLHOMOCYSTEINE HYDROLASE
  fold change vs vehicle control: 0.94
Protein LMJF.36.5010 40S RIBOSOMAL PROTEIN SA, PUTATIVE
  fold change vs vehicle control: 1.03
Protein LMJF.36.5130 HY[…], CONSERVED
  fold change vs vehicle control: 1.01
Protein LMJF.36.5150 HYPOTHETICAL PROTEIN, CONSERVED
  fold change vs vehicle control: 0.93
Protein LMJF.36.5380, NADH DEHYDROGENASE, PUTATIVE
  fold change relative to vehicle control: 1.07
Protein LMJF.36.5390 PHOSPHORIBOSYLPYROPHOSPHATE SYNTHETASE, PUTATIVE
  fold change vs vehicle control: 0.99
Protein LMJF.36.5620 ISOLEUCYL-TRNA SYNTHETASE, PUTATIVE
  fold change vs vehicle control: 0.94
Protein LMJF.36.6430 PROTEIN TRANSPORT PROTEIN SEC23-LIKE PROTEIN, vehicle control = 1
  fold change: 1.17
Protein LMJF.36.6760 HYPOTHETICAL PROTEIN, CONSERVED
  fold change vs vehicle control: 0.87
Protein LMJF.[…], MIT[…] BETA SUBUNIT, PUTATIVE
  fold change relative to vehicle control: 1.14
Protein LMJF.[…], POLY(A) EXPORT PROTEIN, PUTATIVE
  fold change relative to vehicle control: 1.24
Vs vehicle control, protein LINJ.20.0630 CYTIDINE TRIPHOSPHATE SYNTHASE, PUTATIVE,CTP SYNTHASE, PUTATIVE
  fold change: 0.91
Vs vehicle control, protein LINJ.20.1390 COATOMER BETA SUBUNIT, PUTATIVE
  fold change: 0.96
Vs vehicle control, protein LMJF.05.1140 VACUOLAR ATPASE SUBUNIT-LIKE PROTEIN
  fold change: 0.75
Vs vehicle control, protein LMJF.07.1090 DELTA-5 FATTY ACID DESATURASE
  fold change: 0.88
Vs vehicle control, protein LMJF.09.0220 HYPOTHETICAL PROTEIN, CONSERVED
  fold change: 0.73
Vs vehicle control, protein LMJF.11.1030 HYPOTHETICAL PROTEIN, CONSERVED
  fold change: 0.86
Vs vehicle control, protein LMJF.14.0640 FATTY ACID ELONGASE, PUTATIVE
  fold change: 0.71
Vs vehicle control, protein LMJF.14.0705 FATTY ACID ELONGASE, PUTATIVE
  fold change: 0.92
Vs vehicle control, protein LMJF.14.1120 KINESIN K39, PUTATIVE
  fold change: 0.96
Vs vehicle control, protein LMJF.16.1610 PROHIBITIN
  fold change: 1.01
Vs vehicle control, protein LMJF.17.0010 HYPOTHETICAL PROTEIN, CONSERVED
  fold change: 0.94
Vs vehicle control, protein LMJF.18.1130 RAS-RELATED PROTEIN RAB-5, PUTATIVE
  fold change: 0.82
Vs vehicle control, protein LMJF.19.1420 CYSTEINE PEPTIDASE A (CPA)
  fold change: 0.84
Vs vehicle control, protein LMJF.21.0280 HY[…], CONSERVED
  fold change: 0.97
Vs vehicle control, protein LMJF.22.1560 40S RIBOSOMAL PROTEIN L14, PUTATIVE
  fold change: 0.93
Vs vehicle control, protein LMJF.23.1220 T-COMPLEX PROTEIN 1, GAMMA SUBUNIT, PUTATIVE
  fold change: 0.94
Vs vehicle control, protein LMJF.24.0370 ASPARTATE AMINOTRANSFERASE, PUTATIVE
  fold change: 0.99
Vs vehicle control, protein LMJF.25.1770 ENOYL-COA REDUCTASE, PUTATIVE
  fold change: 0.97
Vs vehicle control, protein LMJF.26.0170 60S RIBOSOMAL PROTEIN L7, PUTATIVE
  fold change: 0.85
Vs vehicle control, protein LMJF.26.1550 TRI[…] ALPHA SUBUNIT, MIT[…]-LIKE PROTEIN
  fold change: 1.09
Vs vehicle control, protein LMJF.26.1610 PROLINE OXIDASE, MITOCHONDRIAL PRECURSOR-LIKE PROTEIN
  fold change: 0.79
Vs vehicle control, protein LMJF.28.1950 X-PRO, DIPEPTIDYL-PEPTIDASE,SERINE PEPTIDASE, CLAN SC, FAMILY S15, PUTATIVE
  fold change: 0.96
Vs vehicle control, protein LMJF.31.1070 BIOTIN/LIPOATE PROTEIN LIGASE-LIKE PROTEIN
  fold change: 0.88
Vs vehicle control, protein LMJF.32.1370 HY[…], CONSERVED
  fold change: 0.92
Vs vehicle control, protein LMJF.34.0490 IMPORTIN BETA-1 SUBUNIT, PUTATIVE
  fold change: 1.14
Vs vehicle control, protein LMJF.34.4060 UBIQUITIN HYDROLASE, PUTATIVE,CYSTEINE PEPTIDASE, CLAN CA, FAMILY C19, PUTATIVE
  fold change: 0.88
Vs vehicle control, protein LMJF.36.1600 PROTEASOME ALPHA 1 SUBUNIT, PUTATIVE
  fold change: 0.98
Vs vehicle control, protein LMJF.[…] RIBOSOMAL PROTEIN S7, PUTATIVE
  fold change: 0.99
